Bridge positions count the residues as written; N and C are the ends. Ends that are not written are not given here.
Assays:
AMY1R (CTR:RAMP1) = assay: Native PAGE mobility shift assay, single-point, AMY1R; type: biochemical, human; conditions: 10 μM agonist, no mGs, detergent-solubilized (LMNG/CHS), in-gel mCitrine fluorescence, qualitative, three replicates
[1] = target: AMY1R (HiBiT-CTR:mCitrine-RAMP1) (Homo sapiens, UniProt O60894+P30988); assay: CTR:RAMP cell surface proximity BRET assay, AMY1R; type: cell-based; conditions: 300 nM agonist, HEK293 cells, room temperature, 30 min, pH 7.4
AMY1R (HiBiT-CTR:mCitrine-RAMP1), sequence (O60894 24-148, one chain of several): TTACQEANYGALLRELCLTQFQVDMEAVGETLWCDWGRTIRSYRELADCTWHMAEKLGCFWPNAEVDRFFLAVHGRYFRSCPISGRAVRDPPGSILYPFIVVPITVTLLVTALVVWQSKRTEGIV
AMY2R (CTR:RAMP2) = assay: Native PAGE mobility shift assay, single-point, AMY2R; type: biochemical, human; conditions: 10 μM agonist, no mGs, detergent-solubilized (LMNG/CHS), in-gel mCitrine fluorescence, qualitative, three replicates
CTR:R3 (AMY3R) = target: T1, CTR:R3 (AMY3R) (Homo sapiens, UniProt O60896+P30988); conditions: 50 μM SUMO-miniGs, agonist titration
T1 sequence (P30988 25-474): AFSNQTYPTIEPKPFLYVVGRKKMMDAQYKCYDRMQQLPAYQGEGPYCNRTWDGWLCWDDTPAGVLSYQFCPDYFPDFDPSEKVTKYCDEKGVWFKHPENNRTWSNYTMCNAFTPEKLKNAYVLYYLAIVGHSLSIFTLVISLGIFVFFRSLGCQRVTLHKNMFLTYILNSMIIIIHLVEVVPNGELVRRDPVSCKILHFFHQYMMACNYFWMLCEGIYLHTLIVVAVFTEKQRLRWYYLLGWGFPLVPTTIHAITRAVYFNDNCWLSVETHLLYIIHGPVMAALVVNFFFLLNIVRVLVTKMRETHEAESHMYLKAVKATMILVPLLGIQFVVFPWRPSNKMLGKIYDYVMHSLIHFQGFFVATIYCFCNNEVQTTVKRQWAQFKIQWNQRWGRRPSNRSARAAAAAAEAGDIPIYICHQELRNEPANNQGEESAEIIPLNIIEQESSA
T1 sequence (O60896 25-148): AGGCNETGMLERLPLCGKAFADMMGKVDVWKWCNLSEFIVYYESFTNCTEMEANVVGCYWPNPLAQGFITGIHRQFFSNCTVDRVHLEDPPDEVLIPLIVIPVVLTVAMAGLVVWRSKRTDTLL

[2] = test system: AMY2R (HiBiT-CTR:mCitrine-RAMP2); assay: CTR:RAMP cell surface proximity BRET assay, AMY2R; type: cell-based, human; conditions: 300 nM agonist, HEK293 cells, room temperature, 30 min, pH 7.4
[3] = target: T2, AMY3R (HiBiT-CTR:mCitrine-RAMP3) (Homo sapiens, UniProt O60896+P30988); assay: CTR:RAMP cell surface proximity BRET assay, AMY3R; type: cell-based; conditions: 300 nM agonist, HEK293 cells, room temperature, 30 min, pH 7.4
T2 sequence (P30988 25-474): T1 sequence (P30988 25-474)

CTR:R1 (AMY1R) = CTR:R1 (AMY1R) (Homo sapiens, UniProt O60894+P30988); assay: Native PAGE agonist titration with excess SUMO-miniGs, AMY1R; conditions: 50 μM SUMO-miniGs
CTR:R1 (AMY1R), sequence (O60894 24-148, one chain of several): as the sequence (O60894 24-148, one chain of several) above

[4] = target: AMY1R on cells (HiBiT-CTR.25–474 : mCitrine-RAMP1.24–148) (human) (UniProt O60894); assay: FRET or BRET
[5] = cited from earlier work
CTR + RAMP3 = target: T3, CTR + RAMP3 (Homo sapiens, UniProt O60896+P30988); assay: cAMP signaling CAMYEL biosensor BRET assay in COS-7 cells, CTR + RAMP3; conditions: 30 min, 37°C
T3 sequence (P30988 25-474): T1 sequence (P30988 25-474)
T3 sequence (O60896 24-148): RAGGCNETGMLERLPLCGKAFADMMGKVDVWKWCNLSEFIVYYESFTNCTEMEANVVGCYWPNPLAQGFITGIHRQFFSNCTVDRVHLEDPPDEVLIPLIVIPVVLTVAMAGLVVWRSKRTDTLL

CTR:R2 (AMY2R) = CTR:R2 (AMY2R) (Homo sapiens, UniProt O60895+P30988); conditions: 50 μM SUMO-miniGs, agonist titration
CTR:R2 (AMY2R), sequence (O60895 55-175, one chain of several): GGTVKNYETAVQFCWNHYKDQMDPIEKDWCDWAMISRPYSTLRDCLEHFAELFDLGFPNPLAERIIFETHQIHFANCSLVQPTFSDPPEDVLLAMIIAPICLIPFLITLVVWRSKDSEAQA

CTR + RAMP1 = CTR + RAMP1 (Homo sapiens, UniProt O60894+P30988); assay: cAMP signaling CAMYEL biosensor BRET assay in COS-7 cells, CTR + RAMP1; conditions: 30 min, 37°C, vs CTR alone
CTR + RAMP1, sequence (O60894 27-148, one chain of several): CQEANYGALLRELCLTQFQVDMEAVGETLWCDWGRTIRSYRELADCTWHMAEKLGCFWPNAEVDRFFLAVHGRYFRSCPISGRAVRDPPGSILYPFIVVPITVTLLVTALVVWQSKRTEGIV

human αCGRP, sequence (P06881 83-119): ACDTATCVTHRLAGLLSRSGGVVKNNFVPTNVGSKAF

| Change in CTR:RAMP proximity BRET signal, real-time [1] | Subunit dissociation (increase in free RAMP3) (CTR:R3 (AMY3R)) | Change in CTR:RAMP proximity BRET signal, real-time [3] | Substance | Change of subunit distribution (free RAMP1 / AMY1R heterodimer) (AMY1R (CTR:RAMP1)) | Change of subunit distribution (AMY2R heterodimer / oligomers) (AMY2R (CTR:RAMP2)) | Change in CTR:RAMP proximity BRET signal, real-time [2] | Effect on CTR-RAMP1 association/dissociation, free RAMP1 (CTR:R1 (AMY1R)) | also measured |
| --- | --- | --- | --- | --- | --- | --- | --- | --- |
| similarly decreased it | promoted AMY3R dissociation | decreased the BRET signal | salmon calcitonin [sCT] | did not appreciably change the free RAMP1 | induced formation of a higher order oligomeric species of unknown molecular composition | a brief initial decrease followed by a gradual increase | little or no effect on subunit association/dissociation | – |
| – | – | – | human αCGRP (from UniProt P06881 83-119) (peptide) | – | – | – | – | EC50 [4]: 0.03 µM |
| – | – | – | cagrilintide (KCNTATCATQRLAEFLRHSSNNFGPILPPTNVGSNTP; chains of the INN, looked up) | – | – | – | – | Weight loss in clinical trials ([5]; ref [9]-[12]): promote substantial weight loss |
| – | – | no effect | rat amylin [rAmylin] | reduced free RAMP1 and increased the amount of the AMY1R heterodimer | appeared to increase the amount of AMY2R heterodimer | – | decreased free RAMP1 with increasing agonist | – |
| – | – | – | pramlintide (KCNTATCATQRLANFLVHSSNNFGPILPPTNVGSNTY-NH2; disulfide 2-7; UniProt P10997 34-70, looked up, variant A25P S28P S29P) | – | – | – | – | Insulin adjunct therapy, glycemic control ([5]; ref [8]): improved glycemic control |
| similarly decreased it | promoted AMY3R dissociation | decreased the BRET signal | human calcitonin [hCT] | did not appreciably change the free RAMP1 | induced formation of a higher order oligomeric species of unknown molecular composition | a brief initial decrease followed by a gradual increase | little or no effect on subunit association/dissociation | Steepness of cAMP concentration-response curve (CTR + RAMP3): steeper than the other curves; Potency change on RAMP3 co-expression, cAMP (CTR + RAMP3; vs CTR alone): decreased hCT potency; Quaternary complex formation (in words) (CTR:R3 (AMY3R)): little if any quaternary complex; Quaternary complex formation (in words) (CTR:R2 (AMY2R)): little if any quaternary complex; Potency change on RAMP1 co-expression, cAMP (CTR + RAMP1): did not change hCT potency |
